According to PubChem BioAssay (NCI):
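Compound exposure: 48 hours, 5 concentrations, 96-well plates. GI50 = concentration required for 50% inhibition of growth. At the TGI there is no net growth.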

What was measured:
Assay in all cases: growth of human tumour cells (NCI), 48 h
[1] = tested on: 786-0 renal
[2] = tested on: A498 renal
[3] = tested on: A549 NSCLC
[4] = tested on: ACHN renal
[5] = tested on: BT-549 breast
[6] = tested on: CAKI-1 renal
[7] = tested on: CCRF-CEM leukemia
[8] = tested on: COLO 205 colon
[9] = tested on: DU-145 prostate
[10] = tested on: EKVX NSCLC
[11] = tested on: HCC-2998 colon
[12] = tested on: HCT-116 colon
[13] = tested on: HCT-15 colon
[14] = tested on: HL-60(TB) leukemia
[15] = tested on: HOP-62 NSCLC
[16] = tested on: HOP-92 NSCLC
[17] = tested on: HS 578T breast
[18] = tested on: HT29 colon
[19] = tested on: IGROV1 ovarian
[20] = tested on: K-562 leukemia
[21] = tested on: KM12 colon
[22] = tested on: LOX IMVI melanoma
[23] = tested on: M14 melanoma
[24] = tested on: MALME-3M melanoma
[25] = tested on: MCF7 breast
[26] = tested on: MDA-MB-231 breast
[27] = tested on: MDA-MB-435
[28] = tested on: MDA-MB-468 breast
[29] = tested on: MOLT-4 leukemia
[30] = tested on: NCI-H226 lung
[31] = tested on: NCI-H23 lung
[32] = tested on: NCI-H460 lung
[33] = tested on: NCI-H522 lung
[34] = tested on: NCI/ADR-RES ovarian
[35] = tested on: OVCAR-3 ovarian
[36] = tested on: OVCAR-4 ovarian
[37] = tested on: OVCAR-5 ovarian
[38] = tested on: OVCAR-8 ovarian
[39] = tested on: PC-3 prostate
[40] = tested on: RPMI-8226 leukemia
[41] = tested on: RXF 393 renal
[42] = tested on: SF-268 CNS
[43] = tested on: SF-295 CNS
[44] = tested on: SF-539 CNS
[45] = tested on: SK-MEL-2 melanoma
[46] = tested on: SK-MEL-28 melanoma
[47] = tested on: SK-MEL-5 melanoma
[48] = tested on: SK-OV-3 ovarian
[49] = tested on: SN12C renal
[50] = tested on: SNB-19 CNS
[51] = tested on: SR leukemia
[52] = tested on: SW-620 colon
[53] = tested on: T-47D breast
[54] = tested on: TK-10 renal
[55] = tested on: U251 CNS
[56] = tested on: UACC-257 melanoma
[57] = tested on: UACC-62 melanoma
[58] = tested on: UO-31 renal

Q: Which results are given for `COc1ccc(C(=O)/C=C/c2ccc3ccccc3c2)cc1S(N)(=O)=O`?
A: GI50 [1]: 1.69 µM; TGI [1]: 3.62 µM; GI50 [2]: 14.6 µM; TGI [2]: 28.2 µM; GI50 [3]: 1.99 µM; TGI [3]: 7.72 µM; GI50 [4]: 1.78 µM; TGI [4]: 3.37 µM; GI50 [5]: 1.53 µM; TGI [5]: 3.27 µM; GI50 [6]: 2.12 µM; TGI [6]: 6.17 µM; GI50 [7]: 2.63 µM; TGI [7]: 6.4 µM; GI50 [8]: 1.96 µM; TGI [8]: 4.06 µM; GI50 [9]: 3.31 µM; TGI [9]: 11.8 µM; GI50 [10]: 6.61 µM; TGI [10]: 20.1 µM; GI50 [11]: 1.56 µM; TGI [11]: 2.93 µM; GI50 [12]: 1.9 µM; TGI [12]: 4.82 µM; GI50 [13]: 0.574 µM; TGI [13]: 2.08 µM; GI50 [14]: 1.61 µM; TGI [14]: 4.11 µM; GI50 [15]: 1.99 µM; TGI [15]: 5.49 µM; GI50 [16]: 1.9 µM; TGI [16]: 9.2 µM; GI50 [17]: 17.5 µM; TGI [17]: 54.8 µM; GI50 [18]: 1.67 µM; TGI [18]: 3.53 µM; GI50 [19]: 2.07 µM; TGI [19]: 5.36 µM; GI50 [20]: 1.58 µM; TGI [20]: 5.45 µM; GI50 [21]: 1.56 µM; TGI [21]: 3.33 µM; GI50 [22]: 1.32 µM; TGI [22]: 2.59 µM; GI50 [23]: 2.26 µM; TGI [23]: 5.98 µM; GI50 [24]: 3.2 µM; TGI [24]: 14.9 µM; GI50 [25]: 1.54 µM; TGI [25]: 4.72 µM; GI50 [26]: 2.5 µM; TGI [26]: 7.51 µM; GI50 [27]: 2.4 µM; TGI [27]: 6.72 µM; GI50 [28]: 1.43 µM; TGI [28]: 2.9 µM; GI50 [29]: 2.09 µM; TGI [29]: 4.95 µM; GI50 [30]: 2.36 µM; TGI [30]: 8.37 µM; GI50 [31]: 1.73 µM; TGI [31]: 3.3 µM; GI50 [32]: 2.96 µM; TGI [32]: 8.84 µM; GI50 [33]: 1.62 µM; TGI [33]: 3.32 µM; GI50 [34]: 2.7 µM; TGI [34]: 8.21 µM; GI50 [35]: 1.58 µM; TGI [35]: 3.38 µM; GI50 [36]: 2.96 µM; TGI [36]: 10.9 µM; GI50 [37]: 1.75 µM; TGI [37]: 4.15 µM; GI50 [38]: 2.48 µM; TGI [38]: 7.04 µM; GI50 [39]: 1.78 µM; TGI [39]: 4.05 µM; GI50 [40]: 1.63 µM; TGI [40]: 4.62 µM; GI50 [41]: 1.57 µM; TGI [41]: 3.34 µM; GI50 [42]: 3.2 µM; TGI [42]: 13.3 µM; GI50 [43]: 1.88 µM; TGI [43]: 4.89 µM; GI50 [44]: 1.69 µM; TGI [44]: 3.15 µM; GI50 [45]: 12.2 µM; TGI [45]: 25.4 µM; GI50 [46]: 2.13 µM; TGI [46]: 5.14 µM; GI50 [47]: 3.48 µM; TGI [47]: 13.6 µM; GI50 [48]: 4.91 µM; TGI [48]: 18.6 µM; GI50 [49]: 1.56 µM; TGI [49]: 3.25 µM; GI50 [50]: 2.15 µM; TGI [50]: 5.95 µM; GI50 [51]: 0.867 µM; TGI [51]: 3.54 µM; GI50 [52]: 1.78 µM; TGI [52]: 3.6 µM; GI50 [53]: 1.76 µM; TGI [53]: 6.77 µM; GI50 [54]: 2.04 µM; TGI [54]: 8.17 µM; GI50 [55]: 1.19 µM; TGI [55]: 2.46 µM; GI50 [56]: 3.79 µM; TGI [56]: 14.5 µM; GI50 [57]: 1.6 µM; TGI [57]: 3.32 µM; GI50 [58]: 1.31 µM; TGI [58]: 2.58 µM
